According to ChEMBL document CHEMBL5338783, “Discovery of an Anti-TNF-α 9-mer Peptide from a T7 Phage Display Library for the Treatment of Inflammatory Bowel Disease” (J Med Chem, 2023):
Calls of active or inactive are those of the source. No cut-off for these calls is given here. Peptide text beside a SMILES is read from it.

molecular target: T1, Tumor necrosis factor (Homo sapiens, UniProt P01375); experiment: Binding affinity to recombinant TNF-alpha (unknown origin) at 488.3 to 500 uM incubated for 10 mins by MST assay; details: dose 488.3-500 µM
T1 sequence (P01375 whole entry): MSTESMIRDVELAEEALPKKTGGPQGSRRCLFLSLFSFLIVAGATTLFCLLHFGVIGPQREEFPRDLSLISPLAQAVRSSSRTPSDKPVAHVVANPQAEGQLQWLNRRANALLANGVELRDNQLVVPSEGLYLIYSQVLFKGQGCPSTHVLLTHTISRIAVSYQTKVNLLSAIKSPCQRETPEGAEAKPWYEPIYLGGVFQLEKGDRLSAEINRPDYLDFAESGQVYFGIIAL

Row | Compound | Activity
1 | CC[C@H](C)[C@H](NC(=O)CNC(=O)[C@H](CC(C)C)NC(=O)[C@H](CC(C)C)NC(=O)[C@H](CO)NC(=O)[C@H](CC(C)C)NC(=O)[C@@H](NC(=O)[C@H](CCC(N)=O)NC(=O)[C@@H](N)CC(N)=O)[C@@H](C)CC)C(=O)O (H-NQILSLLGI-OH) | inactive
2 | CC[C@H](C)[C@H](NC(=O)[C@H](CCCCN)NC(=O)[C@H](CCCCN)NC(=O)[C@H](C)N)C(=O)N[C@H](C(=O)N[C@@H](CC(C)C)C(=O)N[C@@H](CCCNC(=N)N)C(=O)N[C@@H](CC(C)C)C(=O)N[C@@H](CO)C(=O)O)[C@@H](C)CC (H-AKKIILRLS-OH) | inactive

molecular target: T1, Tumor necrosis factor; experiment: Binding affinity to recombinant TNF-alpha (unknown origin) assessed as dissociation constant incubated for 10 mins by MST assay; details: not given

Row | Compound | Kd
3 | C[C@H](N)C(=O)N[C@@H](CS)C(=O)N[C@@H](Cc1c[nH]cn1)C(=O)N[C@@H](C)C(=O)N[C@@H](Cc1c[nH]c2ccccc12)C(=O)N[C@@H](C)C(=O)N1CCC[C@H]1C(=O)N[C@@H](C)C(=O)N[C@@H](CCCNC(=N)N)C(=O)O (H-ACHAWAPAR-OH) | 18 µM
4 | C[C@H](N)C(=O)N[C@@H](CS)C(=O)N[C@@H](Cc1c[nH]cn1)C(=O)N[C@@H](C)C(=O)N[C@@H](C)C(=O)N[C@@H](C)C(=O)N1CCC[C@H]1C(=O)N[C@H](C(=O)N[C@@H](CCCNC(=N)N)C(=O)O)[C@@H](C)O (H-ACHAAAPTR-OH) | 563 µM
5 | C[C@H](N)C(=O)N[C@@H](CS)C(=O)N[C@@H](Cc1c[nH]cn1)C(=O)N[C@@H](C)C(=O)N[C@@H](Cc1c[nH]c2ccccc12)C(=O)N[C@@H](C)C(=O)N[C@@H](C)C(=O)N[C@H](C(=O)N[C@@H](CCCNC(=N)N)C(=O)O)[C@@H](C)O (H-ACHAWAATR-OH) | 9.06 µM
6 | C[C@H](N)C(=O)N[C@@H](CS)C(=O)N[C@@H](C)C(=O)N[C@@H](C)C(=O)N[C@@H](Cc1c[nH]c2ccccc12)C(=O)N[C@@H](C)C(=O)N1CCC[C@H]1C(=O)N[C@H](C(=O)N[C@@H](CCCNC(=N)N)C(=O)O)[C@@H](C)O (H-ACAAWAPTR-OH) | 230 µM
